From ChEMBL document CHEMBL5576153, “Synthesis of diversely substituted pyridin-2(1H)-ones and in vivo evaluation of their anti-allodynic effect on cutaneous inflammatory mechanical allodynia” (2024)
The source made the active and inactive calls. The calls are words filed in the database; no cut-off is given here.

Tested on: Rattus norvegicus
Experiment: Anti-allodynic activity in rat model of capsaicin-induced inflammatory paw pain assessed as inhibition of mechanical allodynia at 5 uM administered intrathecally 30 mins prior to capsaicin induction and measured at 10 mins interval for 65 mins by von frey test relative to control
Type: functional
Conditions: for inhibition: time 95.0 min; for inhibition in vivo at 5 µM: central, 1.583 h, time 95 min

`CCN(CC)CCCCn1ccc2c(-c3cc(Nc4ccncc4)c[nH]c3=O)cccc21` was tested, and the inhibition was “inactive”.

`O=c1[nH]cc(Oc2ccncc2)cc1-c1cccc2[nH]ccc12` was tested, and the inhibition was “Active”.

With `Cn1ccc2c(-c3cc(Nc4ccncc4)c[nH]c3=O)cccc21` the inhibition was “inactive”.

`CN(c1ccncc1)c1c[nH]c(=O)c(-c2cccc3[nH]ccc23)c1` was tested, and the inhibition was “Active”.

With `O=c1[nH]cc(Oc2ccc([N+](=O)[O-])cc2)cc1-c1cccc2[nH]ccc12` the inhibition was “Active”.

`O=C(Nc1c[nH]c(=O)c(-c2cccc3[nH]ccc23)c1)c1ccncc1` was tested, and the inhibition was “Active”.

Molecule `O=c1[nH]cc(Nc2ccncc2)cc1-c1cccc2[nH]ccc12` has an inhibition in vivo at 5 µM of 56%.

In the case of `CCN(CC)CCCn1ccc2c(-c3cc(Nc4ccncc4)c[nH]c3=O)cccc21`, the inhibition was “inactive”.

With `O=c1[nH]cc(OC2CCNCC2)cc1-c1cccc2[nH]ccc12` the inhibition in vivo at 5 µM was 64%.

`O=C(Nc1c[nH]c(=O)c(-c2cccc3[nH]ccc23)c1)c1ccc([N+](=O)[O-])cc1` showed an inhibition in vivo at 5 µM of 58%.

`O=C(Nc1c[nH]c(=O)c(-c2cccc3[nH]ccc23)c1)C1CCNCC1` was tested, and the inhibition was “Active”.

Molecule `COc1ncc(Nc2ccncc2)cc1-c1cccc2[nH]ccc12` has an inhibition in vivo at 5 µM of 85%.
